Laboratory results as given in patent publication US20070202158A1, “Methods Of Administering Water-Soluble Prodrugs Of Propofol For Extended Sedation” (MGI GP, Inc., priority 2003, published 2007).

Test system: Sprague-Dawley rats
Assay: Behavioral sedation rating (scale 0-4) in rats after oral, intravenous or intraduodenal prodrug
Type: in vivo, rat
Description: This example compares the dose-dependent pharmacological effects of a propofol prodrug of Formula I, O-phosphonooxymethyl propofol disodium salt, on rats when administered in a single oral dose to the pharmacological effects observed after an equipotent intravenous infusion. Young adult male Sprague-Dawley rats (250-300 g, Charles River Laboratories) received oral doses of vehicle (0.12% Tris/0.25% monothioglycerol/saline; n=4, per oral gavage) or of O-phosphonooxy-methyl propofol disodium salt at doses of 100, 200, 300 and 400 mg/kg, dissolved in vehicle at 35 mg/ml (n=2 per dose) or 200 mg/ml w/v (n=2 per dose).
The above-described pharmacological effects of oral administration of the tested prodrug were compared with those caused by an equipotent intravenous infusion: Under halothane anesthesia, young adult rats received femoral vein catheters which were exteriorized and attached to a liquid swivel via a protectant spring. About 20 minutes after catheterization, and after full behavioral recovery from halothane anesthesia, each animal was attached to an electronic infusion pump and was administered vehicle, or 5, 10, 20, 30, or 40 mg/kg of the test prodrug (n=2 per dose) in 1 ml total volume by gradual constant-rate intravenous infusion over 10 minutes. Behavioral rating as described above began immediately following the end of infusion.
The above-described efficacy of the tested prodrug when administered orally or intravenously was compared to a mode of administration that allows for the introduction of the prodrug directly into the gut. For this “gastric bypass” experiment, young adult male Sprague Dawley rats (225-250 g body wt.) underwent implantation of intraduodenal catheters to allow for intraduodenal instillation of an aqueous buffered solution of the prodrug. Following full recovery from catheter implantation surgery, various concentrations of O-phosphonooxymethyl propofol disodium salt in vehicle, or vehicle alone, were administered via the catheter in a constant volume of 2 ml/kg body weight to yield doses of 0, 20, 30, 50, 100, 200, 300, and 400 mg/kg body weight (n=2 per dose). Behavioral assessment was conducted as described above. […] The depth and duration of sedation, and the length of unconsciousness in the higher dose groups, depended on the administered dose.

CC(C)c1cccc(C(C)C)c1OCOP(=O)([O-])[O-].[Na+].[Na+] [O-phosphonooxymethyl propofol disodium salt]
biological potency of the peak effect, oral/intragastric relative to intravenous administration: approximately 10%
intraduodenal dose causing a pharmacological effect substantially similar to 40 mg/kg intravenous (FIG. 3 vs 4): 50 mg/kg
intraduodenal dose causing a pharmacological effect substantially similar to 400 mg/kg intragastrally (FIGS. 1, 2 vs 4): 100 mg/kg
intraduodenal dose expected to cause an effect substantially similar to IV 20-30 mg/kg (extrapolated from FIGS. 1-4): about 40 mg/kg
onset of sedative effect (intraduodenal 20-400 mg/kg): Within five minutes
behavioral effect following onset of sedation (intraduodenal, higher dose groups): loss of consciousness in the higher dose groups
behavioral effect (intravenous infusion 5-40 mg/kg over 10 minutes): rapid-onset dose-dependent sedated/anesthetized state
duration of sedated/anesthetized state (intravenous vs oral administration): shorter durations as compared to oral administration
oral bioavailability (conclusion of study) (oral): orally bioavaliable
behavioral effect compared to vehicle (oral 100-200 mg/kg): mild to moderate sedation
duration of mild to moderate sedation (oral 100-200 mg/kg, printed 'and longer'): 1 to 2 h
behavioral effect following onset of sedation (oral 300 and 400 mg/kg dose groups): loss of consciousness
onset of sedated behavior after dosing (oral gavage 100-400 mg/kg): 5 to 10 min
duration of loss of consciousness (oral, highest dose group): up to 1 hour
onset of sedated behavior after oral gavage (oral/intragastric, 35 mg/ml w/v aqueous solution, FIG. 1): 5 to 20 min
